Laboratory results: patent US20100113533A1, “Polymorph II of 4-[4-(Amino)-3- Fluorophenoxy]-N-Methylpyridine-2-Carboxamide” (BAYER SCHERING PHARMA AKTIENGESELLSCHAFT, priority 2006, published 2010)

Experiment: Solubility in water and in organic solvents
Assay type: physicochemical

Q: For `CNC(=O)c1cc(Oc2ccc(NC(=O)Nc3ccc(Cl)c(C(F)(F)F)c3)c(F)c2)ccn1` [polymorph II, 4-[4-({[4-chloro-3-(trifluoromethyl)phenyl]carbamoyl}amino)-3-fluorophenoxy]-N-methylpyridine-2-carboxamide], which “solubility in organic solvents” value (organic solvents) is on record?
A: The value was “high solubility”.

Q: And the solubility in water (water)?
A: The solubility in water was “high solubility”.
